In PubChem BioAssay AID179 (DTP/NCI, 2004):
Active and inactive are the calls of the source.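 Rule for the calls: active = compounds giving half or more protection of infected cells from virus-caused growth loss, again on retest; inactive = the rest.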 Where a SMILES comes first, the peptide text is derived from it. [ ]: non-standard residue; d: D form. Phe(4-NO2) = N[CH](Cc1ccc([N+](=O)[O-])cc1)C(=O)O

System: CEM cells HIV-1 protection, formazan growth assay
Test: NCI AIDS Antiviral Assay
Details: for IC50: measured here: growth of uninfected CEM cells
How it was run: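 Category rules: moderately active means at least 50% protection on retest, and confirmed active means 100% protection reproducibly. The underlying data came from a formazan growth assay in HIV-1-infected CEM cells.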

SMILES | EC50 [µM] | IC50 [µM] | outcome
CN1C(=O)CC(Sc2ccccc2)c2ccccc21 (stereo not given) | > 200 | 36.3 | –
N#C/C(=C\c1ccccc1Cl)c1ccccc1 | > 200 | 72.4 | –
CN(C(=O)c1ccco1)C(=S)N1CCN(c2ccccc2)CC1 | > 110 | 30.2 | –
CC(NC(=O)C(Cc1ccc([N+](=O)[O-])cc1)NC(=O)C(N)CCCCN)C(=O)NC(Cc1ccc([N+](=O)[O-])cc1)C(N)=O (stereo not given) (H-K[Phe(4-NO2)]A[Phe(4-NO2)]-NH2; configuration not given here) | > 200 | > 200 | –
CN1C(=O)C[N+]([O-])=C(c2ccccc2)c2cc(Cl)ccc21 | > 120 | > 120 | –
Cc1ccc([N+](=O)[O-])cc1NC(=O)N1CCCCC1C (stereo not given) | > 200 | > 100 | –
O=C(C[n+]1ccccc1)N/N=C(\Cc1nc2ccc([N+](=O)[O-])cc2[nH]c1=O)C(=O)Nc1cc(Cl)c(Cl)cc1Cl | > 79.4 | 66.1 | –
Cc1ccc(/C=C2\N=C(N3CCCCC3)NC2=O)cc1 | > 200 | 191 | –
O=C(CSc1nnc(Cc2ccccc2)o1)Nc1ccccc1Cl | > 138 | > 138 | –
COc1cccc2c1C(=O)c1c(O)c3c(c(O)c1C2=O)C[C@@](O)(C(C)=O)C[C@@H]3OC1CC(N(C)C)C(O)C(C)O1 (stereo not given in full) | – | – | inactive
N#C/C(=C\c1ccccc1)c1ccccc1[N+](=O)[O-] | > 200 | 12.6 | –
COc1cc(NS(=O)(=O)c2ccc(C(C)=O)cc2)nc(OC)n1 | > 200 | > 200 | –
CC1CC(c2ccc3ccccc3c2)NCCNC(c2ccc3ccccc3c2)CC(C)NCCN1 (stereo not given) | > 200 | 1.15 | –
COc1cc(C(C)O)c[n+](Cc2ccccc2)c1 (stereo not given) | > 302 | > 302 | –
CC(=O)[O][Hg][CH2]C(O)Cn1c(=O)c2c(ncn2C)n(C)c1=O (stereo not given) | – | – | inactive
N#CC1CC12c1ccccc1C(=O)c1ccccc12 (stereo not given) | 135 | 145 | –
C/C(=N\N(C)C)C(CN1CCCCC1)C(c1ccccc1)c1c(O)c2ccccc2oc1=O (stereo not given) | > 69.2 | > 69.2 | –
CN(C)NC(=O)/C(=C/c1ccc(Cl)cc1)NC(=O)c1ccccc1 | > 145 | > 145 | –
CC(=O)Nc1ccc(/C=N/Nc2nnc(N/N=C/c3ccc(NC(C)=O)cc3)c3ccccc23)cc1 | > 200 | 7.59 | –
CCNc1ccccc1S(=O)(=O)c1ccccc1[N+](=O)[O-] | > 0.741 | – | –
COC(=O)/C(C#N)=C/Sc1ccccc1 | – | – | inactive

SMILES | EC50 [µM] | IC50 [µM] | outcome
CC1=Nn2c(nnc2-c2cccc(N)c2)NC(C)(C)C1 | > 468 | > 468 | –
C=c1c2ccccc2oc2nc3[nH]c(N)c(C#N)c(N)c3c(=N)c12 | > 200 | 7.24 | –
CC(C)Cc1cnc(CC(C)C)c(-c2cc3ccccc3[nH]2)n1 | > 8.91 | > 8.91 | –
O=C1CC2c3[nH]c4ccccc4c3CCN2C2=C1CCCC2 (stereo not given) | > 200 | 10.2 | –
CCCCCCCCCCCCCC(=O)CSCCNC(=O)CCNC(=O)[C@@H](O)C(C)(C)COP(=O)(O)OP(=O)(O)OCC1OC(n2cnc3c(N)ncnc32)C(O)C1OP(=O)(O)O (stereo not given in full) | – | – | inactive
CC1=N/C(=C\c2ccc(C)cc2)C(=O)O1 | > 129 | > 129 | inactive
COc1ccc2c(c1)[n+](=O)c(C(=O)CC(=O)C(=O)Nc1cccc(C)c1C)c(C)n2[O-] | > 117 | > 117 | –
COC(=O)/C=C/C1CC(CCCOc2ccccc2)OC(c2ccccc2)O1 (stereo not given) | > 66.1 | > 66.1 | –
COc1ccc(C(=O)/C=C/c2ccc(OCCSCCCCCCCCCCSCCOc3ccc(/C=C/C(=O)c4ccc(OC)cc4)cc3)cc2)cc1 | > 200 | > 200 | –
C1CSCCSCCSCCSC1 | > 38.9 | > 38.9 | –
O=C1c2ccccc2C(=O)N1CCn1ccc(NC(c2ccccc2)(c2ccccc2)c2ccccc2)nc1=O | > 13.8 | > 13.8 | –
COc1ccc(Oc2ccccc2N)cc1 | – | – | inactive
COC(=O)c1cc(C(c2cc(C(=O)OC)c(O)c(Br)c2C)C(Cl)Cl)c(C)c(Br)c1O | > 200 | 66.1 | –
Nc1cc(N2CCOCC2)nc(=O)n1-c1ccccc1 | > 200 | > 200 | –
C=CCOc1cccc(C2(O)c3ccccc3C3=NCCCN32)c1 (stereo not given) | > 200 | 37.2 | –
COc1ccc(S(=O)(=O)N/N=C(\C)CN2C(=O)c3ccccc3C2=O)cc1 | > 129 | > 129 | –
NC1=NN(c2ccccc2)C(=O)C1C(=O)C(=O)Nc1ccc(Cl)c(Cl)c1 (stereo not given) | > 331 | 234 | –
CC(=O)OCCn1c(Cc2ccc(Cl)cc2)nn(C(C)=O)c1=O | > 200 | > 200 | –
CC1(C)COC(c2cccc(C(=O)c3ccccc3)c2)=N1 | > 200 | 57.5 | –
Cn1c(CC(O)(C(F)(F)F)C(F)(F)F)c(C(O)(C(F)(F)F)C(F)(F)F)c2ccccc21 | > 200 | 3.39 | –
CC/C(CC(=O)CCC(=O)Nc1ccc(C)c(C)c1)=N\NC(=O)c1cc2ccccc2cc1O | > 15.8 | 10 | –

SMILES | EC50 [µM] | IC50 [µM] | outcome
C#CCNC(=O)NC(CCCCNC(=O)OCc1ccccc1)C(=O)OCc1ccccc1 (stereo not given) | > 57.5 | 42.7 | –
Cn1c(N)c(-c2c3ccccc3nc3ccccc23)c(=O)n(C)c1=O | > 40.7 | > 40.7 | –
O=c1c2c3c(sc2nc(CN2CCNCC2)n1-c1ccccc1)CCCC3 | > 100 | > 100 | –
CCC[CH2][Sn]1([CH2]CCC)[O]CC(C)[O]1 (stereo not given) | – | – | inactive
COC1=CC(=O)c2c(cc3c(c2O)-c2c(OC)cc4cc5c(c(O)c4c2OC(=O)CC(C)(O)C3)C(=O)CC(C)(O)C5)C1=O (stereo not given) | > 100 | 5.37 | –
N#CN=C(N)N | – | – | inactive
COc1ccc(-c2c(C#N)c(-c3ccccc3)n(NS(=O)(=O)c3ccccc3)c(=O)c2C#N)cc1 | > 200 | 44.7 | –
O=C(COc1ccc(Cl)cc1)N1N=C(c2ccc(Cl)cc2)CC1(O)c1ccccc1 (stereo not given) | > 16.2 | > 16.2 | –
CN1CC2(CCCCC2)C(O)C12C=CCCC2 (stereo not given) | > 380 | > 380 | –
O=C1N=C2SC=C(NC(=S)Nc3ccccc3)N2NC12c1ccccc1-c1ccccc12 | > 200 | 74.1 | –
CCOC(=O)C(Cc1ccccc1)NC(=O)c1ccc(N=NN(C)C)cc1 (stereo not given) | > 51.3 | > 51.3 | –
Cc1ccc2c(c1)C1(SC(C)C(=O)N1c1ccc(Br)cc1)C(=O)N2 (stereo not given) | > 200 | 6.31 | –
CCN(CC)C(=Nc1ccc(Cl)c(Cl)c1)SC(NC=O)=C(Cl)Cl | > 200 | 19.5 | –
O=C(OCc1ccccc1)N1CC[C@@H](O)[C@H]1CO | > 200 | > 200 | –
CC1=CC2OC3CC4OC(=O)/C=C/C=C/C(=O)OCCC(C)C(O)C(=O)OCC2(CC1O)C4(C)C31CO1 (stereo not given) | > 0.2 | 0.00347 | –
O=S(=O)(F)c1cc(C[P+](c2ccccc2)(c2ccccc2)c2ccccc2)ccc1Cl | > 200 | 91.2 | –
CC(NC(=O)OC(C)(C)C)C(=O)NC(Cc1ccccc1)C(=O)NCC(=O)ON=C1CCCC1 (stereo not given) | > 200 | 25.7 | –
O=[N+]([O-])c1ccc2c(c1)nc1n2C(c2c(F)cccc2F)SC1 (stereo not given) | 186 | 195 | –
Cc1ccc(NC(=O)/C(CC2N=c3c(ccc4c(O)c5ccccc5c(O)c34)=NC2O)=N/NC(C)(C)C)cc1 (stereo not given) | > 10 | > 10 | –
